From article PMC8762250, “Identification of Novel Chemical Scaffolds that Inhibit the Growth of Mycobacterium tuberculosis in Macrophages” (Frontiers in Pharmacology, 2022)
Where two headings read alike, the source gives them in different places. Marks after values point to notes of the source that are not given here.

Assays:
HepG2 cells = assay: HepG2 cytotoxicity (CellTiter-Glo, 72 h); format: cell-based, human; conditions: 72 h
Description: (§1) Cytotoxicity against HepG2 cells was measured after 72 h. Cells were seeded in 384-well plates at 1,800 cells per well. Compounds were added as a 10-point three-fold serial dilution after 24 h (final assay concentration of 1% DMSO). CellTiter-Glo® reagent (Promega) was added and relative luminescence units (RLU) measured. Data were normalized to the DMSO controls. Curves were fitted using the Levenberg–Marquardt algorithm; TC50 was calculated as the compound concentration required to reduce cell viability by 50%.
(§2) We further evaluated cytotoxicity using the HepG2 cell line cultured with either glucose or galactose in the medium (Table 2). HepG2 cells cultured with galactose rely on mitochondrial oxidative phosphorylation rather than glycolysis which increases their susceptibility to mitochondrial toxicants allowing us to identify compounds with mitochondrial toxicity ([Kamalian et al., 2015]).

M. tuberculosis [1] = assay: Minimum inhibitory concentration in liquid medium (axenic culture); format: cell-based, Mycobacterium tuberculosis; conditions: Mycobacterium tuberculosis; for IC50: read-out: Anti-tubercular activity in axenic culture IC50
M. tuberculosis [2] = assay: High content assay of intracellular M. tuberculosis growth in infected RAW264.7 macrophages; format: cell-based, Mycobacterium tuberculosis H37Rv-LP; conditions: Mycobacterium tuberculosis, RAW264.7, 72 h, M. tuberculosis in RAW264.7 cells, MOI 1, 72 h; read-out: Intracellular activity Anti-tubercular activity IC50
Description: Compounds were obtained in 384-well plates as 10 mM DMSO stock solutions and tested as described ([Manning et al., 2017]). Briefly, assay plates were prepared in clear bottom, black 384-well plates with 30 μl cRPMI and 0.6 μl compound in columns 3–22 (final concentration of 10 μM compound, 1% DMSO). […] INH and STA were also included in dose response on each plate. RAW264.7 cells were infected with M. tuberculosis DREAM8 as described ([Manning et al., 2017]) at an MOI of 1 for 24 h and extracellular bacteria removed by washing. Cells were recovered using Accumax, harvested, washed and resuspended in serum-free RPMI; 30 μl of infected cells were dispensed into each well at 3,300 cells/well. Plates were incubated for 72 h, 10 μl of 5X SYBR Green I was added and plates were imaged with an ImageXpress Micro High Content Screening System (Molecular Devices) using a ×4 objective and FITC and Texas Red channels. MetaXpress was used to analyze images. The integrated intensity of M. tuberculosis or macrophages was calculated for each well. Growth inhibition was calculated for each test well by normalizing to the average integrated intensity of the DMSO control wells. IC50 was calculated as the compound concentration required to reduce bacterial growth by 50%. TC50 was calculated as the compound concentration required to reduce macrophage viability by 50%.

RAW264.7 cells = assay: Macrophage viability in the same high content assay; conditions: infected RAW264.7 macrophages; for Intracellular activity Cytotoxicity TC50: 72 h
[3] = HepG2 cytotoxicity (CellTiter-Glo, 72 h); format: cell-based, human; conditions: human
Description: as §1, §2

[4] = 120 h, extracellular, 5 days, OD590
[5] = 120 h, extracellular, 5 days, OD590, read-out: Anti-tubercular activity in axenic culture IC90

Structure (SMILES)	HepG2 cytotoxicity TC50 Galactose (HepG2 cells; human)	HepG2 cytotoxicity TC50 Glucose (HepG2 cells; human)	IC50 (M. tuberculosis [1]; [4])	IC90 (M. tuberculosis [1]; [5])	IC50 (M. tuberculosis [2])	Intracellular activity Cytotoxicity TC50 (RAW264.7 cells)	IC50 at 72 h ([3]; HepG2 cytotoxicity IC50 Galactose)	IC50 at 72 h ([3]; HepG2 cytotoxicity IC50 Glucose)	IC90 (M. tuberculosis [1]; axenic culture, SAR tables 4-8, read-out: Extracellular IC90)	Intracellular RAW TC50 (RAW264.7 cells; SAR tables 4-8)	HepG2 cytotoxicity TC50 Galactose (HepG2 cells; galactose medium)	HepG2 cytotoxicity TC50 Glucose (HepG2 cells; glucose medium)	IC50 (M. tuberculosis [1]; 120 h)	IC90 (M. tuberculosis [1]; 120 h, read-out: Anti-tubercular activity in axenic culture IC90)
Clc1ccc(Nc2nc(-c3cccs3)cs2)cc1 [TPN-0095025]	28 ± 1.5 ^b µM	35 ± 1.0 ^a µM	> 20 µM	> 20 µM	4.4 ± 1.7 µM	26 ± 7.1 ^c µM								
COc1ccc(C2Oc3ccc(Cl)cc3C3=C2C(c2ccc(OC)cc2)n2ncnc2N3)cc1 (stereo not drawn) [TPN-0095029]	>50 ^b µM	>50 ^b µM	> 10 µM	> 10 µM	> 50 µM	>50 ^b µM								
Clc1ccc(C2C=C(c3ccc(Br)cc3)Nc3ncnn32)cc1 (stereo not drawn) [TPN-0095026]	18 ± 5 ^b µM	19 ± 3.5 ^b µM	19 ± 1 µM	> 20 µM		19 ± 12 ^b µM								
NNC(=O)c1ccncc1 [INH, isoniazid, reference compound]					0.23 ± 0.08 µM									
O=C(c1ccc(Cl)c(Cl)c1)N1CCN(c2ccc([N+](=O)[O-])c3cccnc23)CC1 [TPN-0095034]	>100 ^c µM	>100 ^c µM	> 20 µM	> 20 µM	8.4 ± 2.3 µM	>100 ^d µM								
Cc1ccc(Nc2nc(C(N)=O)c(N)s2)cc1 [TPN-0095028]	62 ± 6.2 ^c µM	54 ± 9.4 ^c µM	> 20 µM	> 20 µM	4.4 ± 1.3 µM	54 ± 20 ^b µM								
O=C(CN1CCC(Cc2ccccc2)CC1)Nc1ccc(Cl)cn1 [TPN-0095042]	19 ± 1.0 ^b µM	26 ± 3.0 ^b µM	> 10 µM	> 10 µM	3.7 ± 0.62 µM	21 ± 9.3 ^c µM								
COc1ccc(CNC(=O)c2c(C)nc3ccccn23)cc1 [TPN-0095027]	22 ± 2.2 ^c µM	76 ± 12 ^c µM	0.17 ± 0.02 µM	0.6 ± 0.2 µM	0.1 ± 0.01 µM	72 ± 16 ^d µM								
Cc1sc(NC(=O)c2ccc(OC(C)C)cc2)c(C(N)=O)c1C [TPN-0073559]	41 ± 11 ^c µM	49 ± 8.5 ^c µM	> 20 µM	> 20 µM		50 ± 24 ^d µM	41 ± 11 µM	49 ± 8.5 µM	> 20 µM	50 ± 24 ^d µM				
COc1ccc(OCCNC(=O)c2cc([N+](=O)[O-])cc([N+](=O)[O-])c2)cc1 [TPN-0095031]					0.036 ± 0.007 µM	40 ± 25 ^e µM					52 ± 0.47 ^c µM	57 ± 6.2 ^c µM	0.2 ± 0.07 µM	0.4 ± 0.14 µM
O=C(c1c(F)cccc1F)N1CCN(c2cc(N3CCCCCC3)c(F)cc2[N+](=O)[O-])CC1 [TPN-0095035]	21 ± 2.0 ^b µM	27 ± 0 ^b µM	9.6 ± 0.1 µM	> 10 µM	1 ± 0.02 µM	>50 ^c µM								
Cc1ccc(Nc2nc(-c3ccc(Cl)cc3)cs2)cc1Cl [TPN-0095032]	19 ± 0.5 ^b µM	23 ± 1.5 ^b µM	> 20 µM	> 20 µM	3.5 ± 0.83 µM	9.9 ± 0.98 ^c µM								
Cn1nc(C2CC2)cc1C(=O)Nc1ccc(I)cc1 [TPN-0089788]	30 ± 12 ^e µM	52 ± 18 ^e µM	> 20 µM	> 20 µM	2.5 ± 0.57 µM	>100e µM								
